According to US20170049822A1, “METHODS OF ENHANCING STEM CELL ENGRAFTMENT” (TEXAS HEART INSTITUTE, priority 2014, published 2017):

Experiments:
[1] = test system: hMSCs in ischemic hindlimbs of NOD/SCID mice; assay: In vivo bioluminescence imaging of hMSC retention with daily SEE drug treatment; details: 3 days, hMSCs preconditioned 100 nM 4 days
Experimental: The ability of stem cells to engraft in ischemic tissues in the presence of SEE was investigated. More specifically, the ability of hMSCs to engraft in ischemic hindlimbs in the presence of different SEEs was investigated. The studies were conducted in as described in Example 5, unless otherwise specified. To investigate the signaling pathways involved in prostacyclin-induced cell retention after hindlimb ischemia, hMSCs were preconditioned with either prostacyclin receptor agonist Cicaprost (100 nM) or PPARβ/δ agonist GW501516 (100 nM) for 4 days in vitro. Cells were then injected into the gastrocnemius of ischemic hindlimbs of NOD/SCID mice. After cell injection, mice were either treated daily with Cicaprost (oral gavage, LD=0.3 mg/kg/day; HD=1 mg/kg/day) or GW501516 (intra peritoneal (IP), 5 mg/kg/day). LD=low dose and HD=high dose. In vivo BLI was performed on cell-drug treated mice.

ischemic hindlimbs [2] = assay: Laser Doppler perfusion of ischemic hindlimbs with local CPGI2 delivery by osmotic pump; format: in vivo, mice; details: local delivery to ischemic thigh muscle, n=5/group
Experimental: Serial measurements of perfusion were performed with the use of a laser Doppler image device (Perimed AB, […]) at 24 hours and 3, 5, 7, and 14 days after cell injections in the cell-treated groups and at the same time points in iloprost-treated mice. Perfusion was expressed as the perfusion ratio in the ischemic compared to the contralateral, non-manipulated leg. The outcomes of local delivery of CPGI2, a prostacyclin analogue, to ischemic hindlimbs were investigated. More specifically, blood perfusion in ischemic hindlimbs was monitored in conjunction with CPGI2 treatment. An osmotic pump was implanted and a catheter was used to deliver the prostacyclin analogue CPGI2 or saline (vehicle) to the surface of the ischemic anterior thigh muscle for up to 14 days.

ischemic hindlimbs [3] = assay: Quantitative micro-CT of microvascular network in ischemic hindlimbs; format: in vivo, mice
Source text: The outcomes of local delivery of CPGI2, a prostacyclin analogue, to ischemic hindlimbs were investigated. More specifically, remodeling of microvascular network in ischemic hindlimbs was monitored in conjunction with CPGI2 treatment. High-definition, volumetric, quantitative micro-CT was used to assess the overall microvascular geometry of ischemic and contralateral non-ischemic legs 14 days after femoral occlusion and constant local administration of CPGI2 or saline. […] Similar global morphometric analyses were used to evaluate contralateral non-ischemic legs. […] To further verify the pro-arteriogenic effect of CPGI2, a quantitative histogram was generated by using micro-CT to illustrate frequency and distribution of blood vessel size in CPGI2-treated legs in comparison to saline-treated or contralateral non-ischemic legs. […] Referring to FIG. 4B, the red dashed circles show more vasculature in the thigh muscle where CPGI2 was administered as compared to the similar area where saline was administered. […] CPGI2 treatment positively affects remodeling of the microvascular network in ischemic hindlimbs. Quantitative micro-CT analyses indicate CPGI2 augments vascular growth.

ischemic hindlimbs [4] = assay: Live microscopy / quantitative confocal analysis of arteriolar growth in ischemic hindlimbs; format: in vivo, mice; details: ischemic legs
Source text: The outcomes of local delivery of CPGI2, a prostacyclin analogue, to ischemic hindlimbs were investigated. More specifically, arteriolar growth in ischemic hindlimbs was monitored in conjunction with CPGI2 treatment. Dynamic changes in the microvascular morphology of the limb region distal to the ligation where CPGI2 was applied were microscopically examined in live mice. At 7 days after treatment, structural remodeling at the arteriolar level in the CPGI2 group was more distinct than in the saline group, as shown in FIG. 3. […] More intra-arteriolar connections (solid line arrows, as shown in FIG. 3) and corkscrew extensions of arterioles (dashed line arrows, as shown in FIG. 3) developed in CPGI2-treated versus saline-treated groups. Arteriolar networks were identified by their branching out from a large feeder femoral artery or from a saphenous branch of descending genicular artery.

[5] = in vivo; cited from earlier work

Q: With `Cc1cc(SCc2sc(-c3ccc(C(F)(F)F)cc3)nc2C)ccc1OCC(=O)O` [GW501516] as the compound, how does the “bioluminescent intensity (hMSC retention) versus no drug treatment” value ([1]; intra peritoneal 5 mg/kg/day) read?
A: The value was “markedly higher”.

Q: Which blood flow recovery (ischemic hindlimbs [2]; 7 days, perfusion ischemic vs contralateral leg) does the source give for `CCCCC[C@H](O)/C=C/[C@@H]1[C@H]2C/C(=C/CCCC(=O)O)C[C@H]2C[C@H]1O` [CPGI2, Carbaprostacyclin] here?
A: Its blood flow recovery is 58.80±5.74%.

Q: What about the blood flow recovery (ischemic hindlimbs [2]; 14 days) of the same compound?
A: Its blood flow recovery is 88.40±8.71%.

Q: And the distance between vessels (ischemic hindlimbs [3]; ischemic legs, 14 days)?
A: Its distance between vessels is 6.60±0.52 mm.

Q: And the vascular volume (ischemic hindlimbs [3]; ischemic legs, 14 days after femoral occlusion, constant local administration)?
A: The vascular volume was 41.28±2.22 mm^3.

Q: What about the “small vessels, vessel diameter bins 40-60 μm, relative to saline-treated ischemic legs” value (ischemic hindlimbs [3]; micro-CT histogram, ischemic legs) of the same compound?
A: The value was “significant increase”.

Q: What about the “morphologic variables of contralateral non-ischemic legs versus saline-treated” value (ischemic hindlimbs [3]; non-ischemic legs, 14 days) of the same compound?
A: The value was “No significant differences”.

Q: What about the “structural remodeling at the arteriolar level versus saline group” value (ischemic hindlimbs [4]; 7 days after treatment) of the same compound?
A: The value was “more distinct”.

Q: What about the “number of microvessels ranging in size from 15-50 m in diameter” value (ischemic hindlimbs [4]; quantitative confocal analysis) of the same compound?
A: Its value is 38.00±2.41 /high-power field [HPF].

Q: With `CCCCC[C@H](O)/C=C/[C@@H]1[C@H]2C/C(=C/CCCC(=O)O)O[C@H]2C[C@H]1O` [PGI2, prostacyclin] as the compound, how does the circulating half-life [5] read?
A: Its circulating half-life is 1 to 2 min.

Q: For `CCC#CC[C@H](C)[C@H](O)C#C[C@@H]1[C@H]2C/C(=C/COCC(=O)O)C[C@H]2C[C@H]1O` [Cicaprost], which “bioluminescent intensity (hMSC retention) versus no drug treatment” value ([1]; oral gavage daily 0.3 or 1 mg/kg/day) is on record?
A: Its value is “markedly higher”.
